Assay results as given in the NIST ThermoML archive (doi:10.1016/j.jct.2017.03.002).
Numbers after ± are expanded uncertainties.

Assays:
[1] = for surface tension liquid-gas: Capillary rise; for vapor or sublimation pressure: Closed cell (Static) method
[2] = xn = mol fraction of the nth substance listed; conditions: Capillary rise

CC [ethane]
[1]
Conditions | surface tension liquid-gas [mN/m]
274.62 K | 2.95 ± 0.68
279.17 K | 2.4 ± 0.68
283.79 K | 1.85 ± 0.68
291.25 K | 1.05
293.15 K | 0.95
294.16 K | 0.91
295.04 K | 0.81
297.18 K | 0.62
299.13 K | 0.43
301.25 K | 0.27
303.1 K | 0.13

[1]
Conditions | Critical pressure [kPa] | Critical temperature [K] | vapor or sublimation pressure [kPa]
274.62 K, Liquid | – | – | 2472.5 ± 11
279.17 K, Liquid | – | – | 2753.2 ± 11
283.79 K, Liquid | – | – | 3060.9 ± 12
291.25 K, Liquid | – | – | 3615.2 ± 13
293.15 K, Liquid | – | – | 3764.3 ± 14
294.16 K, Liquid | – | – | 3848 ± 14
295.04 K, Liquid | – | – | 3919.9 ± 15
297.18 K, Liquid | – | – | 4105.5 ± 15
299.13 K, Liquid | – | – | 4277.5 ± 16
301.25 K, Liquid | – | – | 4471.9 ± 17
303.1 K, Liquid | – | – | 4650.3 ± 17
304.95 K, Liquid | – | – | 4832.5 ± 18
Liquid, Direct measurement | 4870 ± 23 | – | –
Liquid, Visual observation in a stirred cell | – | 305.39 ± 0.16 | –

C [methane] + CCC
[2]
Conditions | surface tension liquid-gas [mN/m]
272.08 K, x1 = 0.139 | 7.06 ± 0.68
272.1 K, x1 = 0.45 | 1.71 ± 0.68
272.14 K, x1 = 0.0508 | 9.38 ± 0.68
272.24 K, x1 = 0.105 | 7.99 ± 0.68
272.25 K, x1 = 0.32 | 3.54 ± 0.68
272.28 K, x1 = 0.493 | 1.36
272.29 K, x1 = 0.265 | 4.85 ± 0.68
272.33 K, x1 = 0.391 | 2.63 ± 0.68
272.34 K, x1 = 0.206 | 5.99 ± 0.68
272.35 K, x1 = 0.554 | 0.51
285.35 K, x1 = 0.0217 | 7.89 ± 0.68
285.37 K, x1 = 0.0609 | 7.13 ± 0.68
285.39 K, x1 = 0.398 | 1.57 ± 0.68
285.5 K, x1 = 0.323 | 2.35 ± 0.68
285.5 K, x1 = 0.525 | 0.34
285.55 K, x1 = 0.279 | 3.1 ± 0.68
285.55 K, x1 = 0.474 | 0.76
285.65 K, x1 = 0.165 | 5.02 ± 0.68
285.76 K, x1 = 0.122 | 6.1 ± 0.68
303.15 K, x1 = 0.117 | 4.12 ± 0.68
303.35 K, x1 = 0.318 | 1.27
303.37 K, x1 = 0.389 | 0.62
303.37 K, x1 = 0.433 | 0.27
303.45 K, x1 = 0.201 | 2.99 ± 0.68

CCC [propane]
[1]
Conditions | surface tension liquid-gas [mN/m]
270.51 K | 10.4 ± 0.68
271.77 K | 10.3 ± 0.68
280.13 K | 9.28 ± 0.68
285.35 K | 8.37 ± 0.68
287.35 K | 8.37 ± 0.68
289.65 K | 8.09 ± 0.68
291.75 K | 7.78 ± 0.68
297.98 K | 7.12 ± 0.68
300.92 K | 6.57 ± 0.68
303.37 K | 6.48 ± 0.68
314.06 K | 4.99 ± 0.68

[1], Liquid
Conditions | vapor or sublimation pressure [kPa]
270.51 K | 437.5 ± 2.5
271.77 K | 456 ± 2.5
280.13 K | 583.7 ± 2.8
285.35 K | 680.6 ± 3.1
287.35 K | 715.4 ± 3.2
289.65 K | 762.1 ± 3.5
291.75 K | 806.2 ± 3.8
297.98 K | 948.2 ± 4
300.92 K | 1021.2 ± 4.3
303.37 K | 1083.1 ± 4.4
314.06 K | 1398 ± 5.2

CCC [propane] + C
[2], x2 = 0
Conditions | surface tension liquid-gas [mN/m]
271.77 K | 10.3 ± 0.68
285.35 K | 8.37 ± 0.68
303.37 K | 6.48 ± 0.68
